How the values were obtained:
pigweed [1] = experiment: Test A pre-/postemergence herbicide test; type: in vivo, Amaranthus retroflexus; conditions: for Pigweed plant response rating: Preemergence, visual rating on 0 to 100 scale (0 no effect, 100 complete control)
How it was run: (§1)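 Visual 0–100 ratings (100 = complete control) made about 10 days after treatment, greenhouse-held plants compared with untreated controls. Treatments: postemergence sprays on one- to two-leaf plants (2–10 cm tall) and preemergence directed soil sprays after planting in loam–sand, chemicals formulated in non-phytotoxic solvent containing surfactant.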

pigweed [2] = experiment: Test C pre-/postemergence herbicide test; type: in vivo, Amaranthus retroflexus; conditions: Preemergence; for Pigweed plant response rating: 31 g ai/ha, scale 0 to 100, 0 is no effect and 100 is complete control
How it was run: (§2)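 Greenhouse plants scored visually against untreated controls 13–15 days after treatment, 0 = no effect, 100 = complete control. Test chemicals in a non-phytotoxic solvent with surfactant were applied either to soil (loam/sand) at planting or to foliage of 1- to 4-leaf plants, 2–18 cm tall.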

johnsongrass = experiment: Test C pre-/postemergence herbicide test; type: in vivo, Sorghum halepense; conditions: Preemergence; for Johnsongrass plant response rating: 31 g ai/ha, scale 0 to 100, 0 is no effect and 100 is complete control
How it was run: as §2

velvetleaf = experiment: Test C pre-/postemergence herbicide test; type: in vivo, Abutilon theophrasti; conditions: Preemergence; for Velvetleaf plant response rating: 31 g ai/ha, scale 0 to 100, 0 is no effect and 100 is complete control
Excerpt: (§3) Seeds of plant species selected from blackgrass (Alopecurus myosuroides), ryegrass, Italian (Italian ryegrass, Lolium multiflorum), wheat (winter wheat, Triticum aestivum), galium (catchweed bedstraw, Galium aparine), corn (Zea mays), crabgrass, large (large crabgrass, Digitaria sanguinalis), foxtail, giant (giant foxtail, Setaria faberii), johnsongrass (Sorghum halepense), lambsquarters (Chenopodium album), morningglory (Ipomoea coccinea), nutsedge, yellow (yellow nutsedge, Cyperus esculentus), pigweed (Amaranthus retroflexus), ragweed (common ragweed, Ambrosia elatior), soybean (Glycine max), barnyardgrass (Echinochloa crus-galli), oilseed rape (Brassica napus), waterhemp (common waterhemp, Amaranthus rudis), kochia (Kochia scoparia), oat, wild (wild oat, Avena fatua), surinam grass (Brachiaria decumbens), foxtail, green (green foxtail, Setaria viridis), goosegrass (Eleusine indica), bromegrass, downy (downy bromegrass, Bromus tectorum), nightshade (eastern black nightshade, Solanum ptycanthum), cocklebur (common cocklebur, Xanthium strumarium), cupgrass, woolly (woolly cupgrass, Eriochloa villosa), bermudagrass (Cynodon dactylon), sunflower, (common oilseed sunflower, Helianthus annuus), Russian thistle (Salsola kali) and velvetleaf (Abutilon theophrasti) were planted into a blend of loam soil and sand and treated preemergence with test chemicals formulated in a non-phytotoxic solvent mixture which included a surfactant. At the same time, plants selected from these crop and weed species and also barley (winter barley, Hordeum vulgare), […]), chickweed (common chickweed, Stellaria media), deadnettle (henbit deadnettle, Lamium amplexicaule), and canarygrass (littleseed canarygrass, Phalaris minor) were planted in pots containing Redi-Earth® planting medium (Scotts Company, 14111 Scottslawn Road, Marysville, Ohio 43041) comprising spaghnum peat moss, vermiculite, wetting agent and starter nutrients and treated with postemergence applications of test chemicals formulated in the same manner. Plants ranged in height from 2 to 18 cm (1- to 4-leaf stage) for postemergence treatments. Treated plants and controls were maintained in a greenhouse for 13 to 15 days, after which time all species were compared to controls and visually evaluated. Plant response ratings, summarized in Table C, are based on a scale of 0 to 100 where 0 is no effect and 100 is complete control. A dash (-) response means no test result.

lambsquarters = experiment: Test C pre-/postemergence herbicide test; type: in vivo, Chenopodium album; conditions: Preemergence; for Lambsquarters plant response rating: 31 g ai/ha, scale 0 to 100, 0 is no effect and 100 is complete control
Excerpt: as §3

foxtail, giant = experiment: Test C pre-/postemergence herbicide test; type: in vivo, Setaria faberii; conditions: Preemergence; for Foxtail, Giant plant response rating: 31 g ai/ha, scale 0 to 100, 0 is no effect and 100 is complete control
Excerpt: as §3

nutsedge, yellow = experiment: Test C pre-/postemergence herbicide test; type: in vivo, Cyperus esculentus; conditions: Preemergence; for Nutsedge, Yellow plant response rating: 31 g ai/ha, scale 0 to 100, 0 is no effect and 100 is complete control
Excerpt: as §3

wheat = experiment: Test A pre-/postemergence herbicide test; type: in vivo, Triticum aestivum; conditions: for Wheat plant response rating: Preemergence, visual rating on 0 to 100 scale (0 no effect, 100 complete control)
How it was run: as §1

corn = experiment: Test C pre-/postemergence herbicide test; type: in vivo, Zea mays; conditions: Preemergence; for Corn plant response rating: 31 g ai/ha, scale 0 to 100, 0 is no effect and 100 is complete control
Excerpt: as §3

galium = experiment: Test C pre-/postemergence herbicide test; type: in vivo, Galium aparine; conditions: Preemergence; for Galium plant response rating: 31 g ai/ha, scale 0 to 100, 0 is no effect and 100 is complete control
Excerpt: as §3

[3] = Postemergence, 125 g ai/ha, 0 to 100 scale, 0 no effect, 100 complete control
[4] = Postemergence, 500 g ai/ha, 0 to 100 scale (0 no effect, 100 complete control)
[5] = preemergence, 500 g ai/ha, 0 to 100 scale
[6] = 125 g ai/ha, scale 0 to 100 (0 no effect, 100 complete control)
[7] = 250 g ai/ha, scale 0 to 100 (0 no effect, 100 complete control)

Structure (SMILES)	Plant response rating, Pigweed (pigweed [1]; [3])	Plant response rating, Pigweed (pigweed [1]; [4])	Pigweed plant response rating (pigweed [1]; 125 g ai/ha)	Plant response rating, Pigweed (pigweed [1]; [5])	Pigweed plant response rating (pigweed [2])	Plant response rating, Pigweed (pigweed [2]; 62 g ai/ha, scale 0 to 100)	Plant response rating, Pigweed (pigweed [2]; [6])	Johnsongrass plant response rating (johnsongrass)	Velvetleaf plant response rating (velvetleaf)	Plant response rating, Velvetleaf (velvetleaf; 62 g ai/ha, scale 0 to 100)	Plant response rating, Velvetleaf (velvetleaf; [6])	Lambsquarters plant response rating (lambsquarters)	Plant response rating, Lambsquarters (lambsquarters; 62 g ai/ha, scale 0 to 100)	Plant response rating, Lambsquarters (lambsquarters; [6])	Foxtail, Giant plant response rating (foxtail, giant)	Plant response rating, Foxtail, Giant (foxtail, giant; 62 g ai/ha, scale 0 to 100)	Plant response rating, Foxtail, Giant (foxtail, giant; [6])	Plant response rating, Foxtail, Giant (foxtail, giant; [7])	Nutsedge, Yellow plant response rating (nutsedge, yellow)	Plant response rating, Nutsedge, Yellow (nutsedge, yellow; 62 g ai/ha, scale 0 to 100)	other results
O=C1NCC(c2cccc(Br)c2)C1C(=O)Nc1ccccc1F (centres unmarked) [Compound 66]	0	0	0	0	0	0	0	30	10	20	25	0	0	0	20	75	85	95	0	0	Plant response rating, Nutsedge, Yellow (nutsedge, yellow; [6]): 0; Plant response rating, Wheat (wheat; [3]): 0; Plant response rating, Wheat (wheat; [4]): 30; Wheat plant response rating (wheat; 125 g ai/ha): 0; Plant response rating, Wheat (wheat; [5]): 20; Corn plant response rating (corn): 0; Plant response rating, Corn (corn; 62 g ai/ha, scale 0 to 100): 0; Plant response rating, Corn (corn; [6]): 10; Plant response rating, Corn (corn; [7]): 20; Galium plant response rating (galium): 0; Plant response rating, Galium (galium; 62 g ai/ha, scale 0 to 100): 0; Plant response rating, Galium (galium; [6]): 0; Plant response rating, Galium (galium; [7]): 0
O=C1NCC(c2cccc(OC(F)(F)F)c2)C1C(=O)Nc1cccc(F)c1F (centres unmarked) [Compound 68]	40	60	0	30	45	75	85	0	10	10	10	55	55	65	85	90	90	95	10	10	Plant response rating, Johnsongrass (johnsongrass; 62 g ai/ha, scale 0 to 100): 35; Plant response rating, Johnsongrass (johnsongrass; [6]): 40; Plant response rating, Nutsedge, Yellow (nutsedge, yellow; [6]): 10; Plant response rating, Wheat (wheat; [3]): 0; Plant response rating, Wheat (wheat; [4]): 20; Wheat plant response rating (wheat; 125 g ai/ha): 0; Plant response rating, Wheat (wheat; [5]): 20; Corn plant response rating (corn): 15; Plant response rating, Corn (corn; 62 g ai/ha, scale 0 to 100): 25; Plant response rating, Corn (corn; [6]): 25; Plant response rating, Corn (corn; [7]): 50; Galium plant response rating (galium): 0; Plant response rating, Galium (galium; 62 g ai/ha, scale 0 to 100): 5; Plant response rating, Galium (galium; [6]): 90; Plant response rating, Galium (galium; [7]): 90
